# Source: PubChem BioAssay AID1963839 (Molecular Pharmacology Branch, DTP, NCI, 2024)
# Test system: 817829-284-R-J1-PDC complex spheroid viability
# Assay: Anticancer human tumor 817829-284-R-J1-PDC patient-derived colon adenocarcinoma cell line growth inhibition [POLQ]
# Details: for IC50: curve of first compound; for viability, T/C: stronger effect = lower value
# Method in brief: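 Complex spheroid viability model combining PDC tumour cells with endothelial (HUVEC) and MSC stromal cells. Novobiocin, ART-558 or RP6685 were tested singly and in combination with standard and investigational anticancer drugs. Each was titrated in half-log steps from near clinical Cmax, or from 10 microM where Cmax was unknown.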
# [1] = second compound 0.0316 µM, first compound 0.0316 µM
# [2] = second compound 0.0316 µM, first compound 0.1 µM
# [3] = second compound 0.0316 µM, first compound 0.316 µM
# [4] = second compound 0.0316 µM, first compound 1 µM
# [5] = second compound 0.0316 µM, first compound 3.16 µM
# [6] = second compound 0.0316 µM, first compound 10 µM
# [7] = second compound 0.1 µM, first compound 0.0316 µM
# [8] = second compound 0.1 µM, first compound 0.1 µM
# [9] = second compound 0.1 µM, first compound 0.316 µM
# [10] = second compound 0.1 µM, first compound 1 µM
# [11] = second compound 0.1 µM, first compound 3.16 µM
# [12] = second compound 0.1 µM, first compound 10 µM
# [13] = second compound 0.316 µM, first compound 0.0316 µM
# [14] = second compound 0.316 µM, first compound 0.1 µM
# [15] = second compound 0.316 µM, first compound 0.316 µM
# [16] = second compound 0.316 µM, first compound 1 µM
# [17] = second compound 0.316 µM, first compound 3.16 µM
# [18] = second compound 0.316 µM, first compound 10 µM
# [19] = second compound 1 µM, first compound 0.0316 µM
# [20] = second compound 1 µM, first compound 0.1 µM
# [21] = second compound 1 µM, first compound 0.316 µM
# [22] = second compound 1 µM, first compound 1 µM
# [23] = second compound 1 µM, first compound 3.16 µM
# [24] = second compound 1 µM, first compound 10 µM
# [25] = second compound 3.16 µM, first compound 0.0316 µM
# [26] = second compound 3.16 µM, first compound 0.1 µM
# [27] = second compound 3.16 µM, first compound 0.316 µM
# [28] = second compound 3.16 µM, first compound 1 µM
# [29] = second compound 3.16 µM, first compound 3.16 µM
# [30] = second compound 3.16 µM, first compound 10 µM
# [31] = second compound 10 µM, first compound 0.0316 µM
# [32] = second compound 10 µM, first compound 0.1 µM
# [33] = second compound 10 µM, first compound 0.316 µM
# [34] = second compound 10 µM, first compound 1 µM
# [35] = second compound 10 µM, first compound 3.16 µM
# [36] = second compound 10 µM, first compound 10 µM
# 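Note: spheroids exposed to compounds for 7 days.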
# 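Throughout, for viability, T/C: 100% = DMSO vehicle-treated spheroids.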
structure (smiles),measurement,setting,value
C#Cc1c(F)ccc2cc(O)cc(-c3ncc4c(N5CC6CCC(C5)N6)nc(OCC56CCCN5CC(F)C6)nc4c3F)c12 (stereo unspecified) + COC1C(OC(N)=O)C(O)C(Oc2ccc3c(O)c(NC(=O)c4ccc(O)c(CC=C(C)C)c4)c(=O)oc3c2C)OC1(C)C,IC50,second compound 0.0316 µM,> 10000 nM
same,IC50,second compound 0.1 µM,> 10000 nM
same,IC50,second compound 0.316 µM,> 10000 nM
same,IC50,second compound 1 µM,7860 nM
same,IC50,second compound 3.16 µM,> 10000 nM
same,IC50,second compound 10 µM,8110 nM
same,"viability, T/C",[1],88.1%
same,"viability, T/C",[2],92.5%
same,"viability, T/C",[3],135%
same,"viability, T/C",[4],119%
same,"viability, T/C",[5],102%
same,"viability, T/C",[6],93.4%
same,"viability, T/C",[7],95.6%
same,"viability, T/C",[8],107%
same,"viability, T/C",[9],102%
same,"viability, T/C",[10],114%
same,"viability, T/C",[11],89.2%
same,"viability, T/C",[12],106%
same,"viability, T/C",[13],88.1%
same,"viability, T/C",[14],105%
same,"viability, T/C",[15],87.5%
same,"viability, T/C",[16],116%
same,"viability, T/C",[17],127%
same,"viability, T/C",[18],66.5%
same,"viability, T/C",[19],110%
same,"viability, T/C",[20],140%
same,"viability, T/C",[21],109%
same,"viability, T/C",[22],126%
same,"viability, T/C",[23],101%
same,"viability, T/C",[24],36.5%
same,"viability, T/C",[25],117%
same,"viability, T/C",[26],121%
same,"viability, T/C",[27],99.1%
same,"viability, T/C",[28],113%
same,"viability, T/C",[29],113%
same,"viability, T/C",[30],56.7%
same,"viability, T/C",[31],87.3%
same,"viability, T/C",[32],113%
same,"viability, T/C",[33],144%
same,"viability, T/C",[34],101%
same,"viability, T/C",[35],132%
same,"viability, T/C",[36],35.4%
CC1COCCN1c1cc(C2(O)CC3CCC(C2)O3)c2cnn(-c3ccn[nH]3)c2n1 (stereo unspecified) + COC1C(OC(N)=O)C(O)C(Oc2ccc3c(O)c(NC(=O)c4ccc(O)c(CC=C(C)C)c4)c(=O)oc3c2C)OC1(C)C,IC50,second compound 0.0316 µM,< 31.6 nM
same,IC50,second compound 0.1 µM,< 31.6 nM
same,IC50,second compound 0.316 µM,< 31.6 nM
same,IC50,second compound 1 µM,< 31.6 nM
same,IC50,second compound 3.16 µM,< 31.6 nM
same,IC50,second compound 10 µM,< 31.6 nM
same,"viability, T/C",[1],18.5%
same,"viability, T/C",[2],10.7%
same,"viability, T/C",[3],3.93%
same,"viability, T/C",[4],3.7%
same,"viability, T/C",[5],3.65%
same,"viability, T/C",[6],2.96%
same,"viability, T/C",[7],29.2%
same,"viability, T/C",[8],8.78%
same,"viability, T/C",[9],4.49%
same,"viability, T/C",[10],2.72%
same,"viability, T/C",[11],3.01%
same,"viability, T/C",[12],1.82%
same,"viability, T/C",[13],25.9%
same,"viability, T/C",[14],8.28%
same,"viability, T/C",[15],5.16%
same,"viability, T/C",[16],3.2%
same,"viability, T/C",[17],2.69%
same,"viability, T/C",[18],2.57%
same,"viability, T/C",[19],24.7%
same,"viability, T/C",[20],9.42%
same,"viability, T/C",[21],4.54%
same,"viability, T/C",[22],3.29%
same,"viability, T/C",[23],3.01%
same,"viability, T/C",[24],1.8%
same,"viability, T/C",[25],27.9%
same,"viability, T/C",[26],10.5%
same,"viability, T/C",[27],4.65%
same,"viability, T/C",[28],3.82%
same,"viability, T/C",[29],2.76%
same,"viability, T/C",[30],2.53%
same,"viability, T/C",[31],21.5%
same,"viability, T/C",[32],9.85%
same,"viability, T/C",[33],5.03%
same,"viability, T/C",[34],4.12%
same,"viability, T/C",[35],2.91%
same,"viability, T/C",[36],2.64%
CCc1cc2c(N3CCc4c(cc(Cn5ccnc5)cc4-c4cn(C)nc4C(F)(F)F)C3=O)cc(C)nc2c(OC)n1 + COC1C(OC(N)=O)C(O)C(Oc2ccc3c(O)c(NC(=O)c4ccc(O)c(CC=C(C)C)c4)c(=O)oc3c2C)OC1(C)C,IC50,second compound 0.0316 µM,3100 nM
same,IC50,second compound 0.1 µM,1720 nM
same,IC50,second compound 0.316 µM,1950 nM
same,IC50,second compound 1 µM,1400 nM
same,IC50,second compound 3.16 µM,3380 nM
same,IC50,second compound 10 µM,2300 nM
same,"viability, T/C",[1],82.7%
same,"viability, T/C",[2],82.2%
same,"viability, T/C",[3],77.6%
same,"viability, T/C",[4],61.9%
same,"viability, T/C",[5],51.9%
same,"viability, T/C",[6],27.7%
same,"viability, T/C",[7],115%
same,"viability, T/C",[8],86.8%
same,"viability, T/C",[9],68.5%
same,"viability, T/C",[10],55.6%
same,"viability, T/C",[11],47.9%
same,"viability, T/C",[12],34.2%
same,"viability, T/C",[13],76.8%
same,"viability, T/C",[14],81.9%
same,"viability, T/C",[15],68.4%
same,"viability, T/C",[16],61.7%
same,"viability, T/C",[17],41.7%
same,"viability, T/C",[18],35.8%
same,"viability, T/C",[19],95.6%
same,"viability, T/C",[20],86.8%
same,"viability, T/C",[21],78%
same,"viability, T/C",[22],52%
same,"viability, T/C",[23],41.9%
same,"viability, T/C",[24],34.7%
same,"viability, T/C",[25],87.5%
same,"viability, T/C",[26],74.2%
same,"viability, T/C",[27],75.3%
same,"viability, T/C",[28],58.1%
same,"viability, T/C",[29],58.3%
same,"viability, T/C",[30],31.4%
same,"viability, T/C",[31],81.2%
same,"viability, T/C",[32],85.3%
same,"viability, T/C",[33],82.6%
same,"viability, T/C",[34],65.6%
same,"viability, T/C",[35],44.5%
same,"viability, T/C",[36],31.7%
